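How tested: cells in 96-well plates exposed to compound for 48 hours at five concentrations. The concentration for full growth arrest is given as TGI.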
Tests used:
Assay in all cases: NCI-60 cell line screen, 48 h
[1] = tested on: HT29 colon
[2] = tested on: HOP-62 NSCLC
[3] = tested on: RPMI-8226 leukemia
[4] = tested on: T-47D breast
[5] = tested on: SK-MEL-28 melanoma
[6] = tested on: COLO 205 colon
[7] = tested on: HS 578T breast
[8] = tested on: MALME-3M melanoma
[9] = tested on: SF-268 CNS
[10] = tested on: BT-549 breast
[11] = tested on: SNB-19 CNS
[12] = tested on: TK-10 renal
[13] = tested on: RXF 393 renal
[14] = tested on: SN12C renal
[15] = tested on: HOP-92 NSCLC
[16] = tested on: DU-145 prostate
[17] = tested on: UO-31 renal
[18] = tested on: MDA-MB-231 breast
[19] = tested on: UACC-257 melanoma
[20] = tested on: MOLT-4 leukemia
[21] = tested on: EKVX NSCLC
[22] = tested on: NCI-H226 lung
[23] = tested on: 786-0 renal
[24] = tested on: MDA-MB-435
[25] = tested on: A498 renal
[26] = tested on: OVCAR-8 ovarian
[27] = tested on: A549 NSCLC
[28] = tested on: KM12 colon
[29] = tested on: SNB-75 CNS
[30] = tested on: SK-MEL-2 melanoma
[31] = tested on: SW-620 colon
[32] = tested on: HL-60(TB) leukemia
[33] = tested on: OVCAR-5 ovarian
[34] = tested on: CCRF-CEM leukemia
[35] = tested on: HCT-15 colon
[36] = tested on: SF-539 CNS
[37] = tested on: CAKI-1 renal
[38] = tested on: UACC-62 melanoma
[39] = tested on: NCI/ADR-RES ovarian
[40] = tested on: MDA-N
[41] = tested on: HCT-116 colon
[42] = tested on: LOX IMVI melanoma
[43] = tested on: IGROV1 ovarian
[44] = tested on: NCI-H23 lung
[45] = tested on: ACHN renal
[46] = tested on: NCI-H522 lung
[47] = tested on: M14 melanoma
[48] = tested on: SK-OV-3 ovarian
[49] = tested on: SR leukemia
[50] = tested on: K-562 leukemia
[51] = tested on: SK-MEL-5 melanoma
[52] = tested on: SF-295 CNS
[53] = tested on: OVCAR-3 ovarian
[54] = tested on: MCF7 breast
[55] = tested on: PC-3 prostate
[56] = tested on: OVCAR-4 ovarian
[57] = tested on: HCC-2998 colon
[58] = tested on: U251 CNS
[59] = tested on: NCI-H460 lung

## Cn1c(N)c(Cc2ccc(Cl)cc2)c(=O)[nH]c1=O
[1]
  TGI: > 100 µM
[2]
  TGI: > 100 µM
[3]
  TGI: > 100 µM
[4]
  TGI: > 100 µM
[5]
  TGI: > 100 µM
[6]
  TGI: > 100 µM
[7]
  TGI: > 100 µM
[8]
  TGI: > 100 µM
[9]
  TGI: > 100 µM
[10]
  TGI: > 100 µM
[11]
  TGI: > 100 µM
[12]
  TGI: > 100 µM
[13]
  TGI: > 100 µM
[14]
  TGI: > 100 µM
[15]
  TGI: > 100 µM
[16]
  TGI: > 100 µM
[17]
  TGI: > 100 µM
[18]
  TGI: > 100 µM
[19]
  TGI: > 100 µM
[20]
  TGI: > 100 µM
[21]
  TGI: > 100 µM
[22]
  TGI: > 100 µM
[23]
  TGI: > 100 µM
[24]
  TGI: > 100 µM
[25]
  TGI: > 100 µM
[26]
  TGI: > 100 µM
[27]
  TGI: > 100 µM
[28]
  TGI: > 100 µM
[29]
  TGI: > 100 µM
[30]
  TGI: > 100 µM
[31]
  TGI: > 100 µM
[32]
  TGI: > 100 µM
[33]
  TGI: > 100 µM
[34]
  TGI: > 100 µM
[35]
  TGI: > 100 µM
[36]
  TGI: > 100 µM
[37]
  TGI: > 100 µM
[38]
  TGI: > 100 µM
[39]
  TGI: > 100 µM
[40]
  TGI: > 100 µM
[41]
  TGI: > 100 µM
[42]
  TGI: > 100 µM
[43]
  TGI: > 100 µM
[44]
  TGI: > 100 µM
[45]
  TGI: > 100 µM
[46]
  TGI: > 100 µM
[47]
  TGI: > 100 µM
[48]
  TGI: > 100 µM
[49]
  TGI: > 100 µM
[50]
  TGI: > 100 µM
[51]
  TGI: > 100 µM
[52]
  TGI: > 100 µM
[53]
  TGI: > 100 µM
[54]
  TGI: > 100 µM

## COc1ccc(C2=Nn3c(nnc3-c3ccccc3)S/C2=C\c2ccc(-c3ccc([N+](=O)[O-])cc3)o2)cc1
[1]
  TGI: 90.3 µM
[55]
  TGI: > 100 µM
[2]
  TGI: > 100 µM
[3]
  TGI: 80.2 µM
[4]
  TGI: > 100 µM
[5]
  TGI: > 100 µM
[6]
  TGI: 70 µM
[7]
  TGI: > 100 µM
[8]
  TGI: > 100 µM
[9]
  TGI: > 100 µM
[10]
  TGI: > 100 µM
[11]
  TGI: > 100 µM
[14]
  TGI: > 100 µM
[15]
  TGI: > 100 µM
[17]
  TGI: > 100 µM
[19]
  TGI: > 100 µM
[20]
  TGI: 76.6 µM
[21]
  TGI: > 100 µM
[23]
  TGI: > 100 µM
[24]
  TGI: 51.3 µM
[25]
  TGI: > 100 µM
[26]
  TGI: > 100 µM
[27]
  TGI: > 100 µM
[28]
  TGI: > 100 µM
[56]
  TGI: > 100 µM
[30]
  TGI: 67.6 µM
[31]
  TGI: > 100 µM
[32]
  TGI: 59 µM
[33]
  TGI: > 100 µM
[34]
  TGI: 32.7 µM
[35]
  TGI: > 100 µM
[37]
  TGI: > 100 µM
[38]
  TGI: > 100 µM
[39]
  TGI: > 100 µM
[40]
  TGI: > 100 µM
[57]
  TGI: > 100 µM
[41]
  TGI: > 100 µM
[42]
  TGI: > 100 µM
[43]
  TGI: > 100 µM
[58]
  TGI: > 100 µM
[45]
  TGI: > 100 µM
[46]
  TGI: 81.8 µM
[47]
  TGI: 86.1 µM
[48]
  TGI: > 100 µM
[49]
  TGI: > 100 µM
[50]
  TGI: 88.8 µM
[51]
  TGI: > 100 µM
[52]
  TGI: > 100 µM
[53]
  TGI: > 100 µM
[59]
  TGI: > 100 µM
[54]
  TGI: > 100 µM

## CC(C)=C1C(=O)c2c(Cl)sc(Cl)c2C1=O
[1]
  TGI: 67.8 µM
[2]
  TGI: > 100 µM
[4]
  TGI: 97.6 µM
[5]
  TGI: 58.3 µM
[6]
  TGI: 38.2 µM
[7]
  TGI: 80.2 µM
[8]
  TGI: 44.5 µM
[9]
  TGI: 79.5 µM
[10]
  TGI: 42.9 µM
[12]
  TGI: 56.7 µM
[14]
  TGI: 48 µM
[15]
  TGI: 45.5 µM
[16]
  TGI: 62.1 µM
[17]
  TGI: 60.4 µM
[18]
  TGI: 57.4 µM
[19]
  TGI: 43 µM
[20]
  TGI: 94.7 µM
[21]
  TGI: 81.1 µM
[22]
  TGI: > 100 µM
[23]
  TGI: 74.9 µM
[24]
  TGI: 39 µM
[25]
  TGI: > 100 µM
[26]
  TGI: 38.3 µM
[27]
  TGI: 81.8 µM
[28]
  TGI: 33.8 µM
[56]
  TGI: 34.5 µM
[29]
  TGI: 59.9 µM
[30]
  TGI: 50.6 µM
[31]
  TGI: 70.5 µM
[32]
  TGI: 90.7 µM
[33]
  TGI: > 100 µM
[34]
  TGI: > 100 µM
[35]
  TGI: 43.3 µM
[36]
  TGI: 50.5 µM
[37]
  TGI: 32.7 µM
[38]
  TGI: 38.3 µM
[39]
  TGI: 54.5 µM
[40]
  TGI: 64 µM
[41]
  TGI: 33 µM
[42]
  TGI: 34.2 µM
[43]
  TGI: 46 µM
[58]
  TGI: 46.3 µM
[44]
  TGI: 36.6 µM
[45]
  TGI: 40.8 µM
[46]
  TGI: 32.6 µM
[47]
  TGI: 37.9 µM
[48]
  TGI: > 100 µM
[49]
  TGI: > 100 µM
[50]
  TGI: > 100 µM
[51]
  TGI: > 100 µM
[52]
  TGI: > 100 µM
[53]
  TGI: 75.1 µM
[59]
  TGI: > 100 µM
[54]
  TGI: > 100 µM

— PubChem BioAssay (NCI)
